Source: the NIST ThermoML archive (doi:10.1016/j.jct.2013.08.010)

What was measured:
[1] = mn = molality of the nth substance listed, in mol/kg; conditions: 101 kPa, Liquid; for speed of sound: Sing-around technique in a fixed-path interferometer; for mass density: Vibrating tube method
[2] = 101 kPa, Liquid, Sing-around technique in a fixed-path interferometer

O=C([O-])CC(O)(CC(=O)[O-])C(=O)[O-].[Na+].[Na+].[Na+] [trisodium citrate] + O
[1]
Conditions | mass density, 288.15 K [kg/m3] | mass density, 298.15 K [kg/m3] | mass density, 308.15 K [kg/m3] | mass density, 318.15 K [kg/m3] | speed of sound, 288.15 K [m/s] | speed of sound, 298.15 K [m/s] | speed of sound, 308.15 K [m/s] | speed of sound, 318.15 K [m/s]
m1 = 0.2 | 1034.67 | 1031.98 | 1028.5 | 1024.36 | 1508 | 1536 | 1556.9 | 1571.8
m1 = 0.4 | 1071.21 | 1067.93 | 1064.13 | 1059.23 | 1552.2 | 1577.5 | 1595.8 | 1608.3
m1 = 0.6 | 1104.43 | 1100.68 | 1096.96 | 1092.26 | 1591.5 | 1614 | 1630.3 | 1641.2
m1 = 0.8 | 1137.97 | 1133.93 | 1129.43 | 1124.5 | 1634 | 1653.8 | 1667.3 | 1676.2

O [water]
[2]
Conditions | speed of sound [m/s]
288.15 K | 1463.1
298.15 K | 1495.8
308.15 K | 1519.1
